Where two headings read alike, the source gives them in different places. Blank lines part the entries; values can stand above or below the compound they belong to.
Columns and labels:
Format in all cases: biochemical
CDK2/CCNE1 = CDK2/CCNE1 (Homo sapiens, UniProt P24941); assay: CDK2 homogeneous time-resolved fluorescence (HTRF) kinase assay; conditions: CDK2/CCNE
Method in brief: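 IC50 derived from 11-point, half-log dilutions (usually top 10 μM) of compound, 1% DMSO. Kinase (3 nM CDK2/CCNE1) was preincubated with compound 20 min, then phosphorylated 50 nM ULight-4E-BP1 peptide at 1 mM ATP for 60 min, 23 °C. Europium-antibody TR-FRET read after EDTA stop.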

CDK1/CCNB1 = CDK1/CCNB1 (Homo sapiens, UniProt P06493); assay: CDK1 homogeneous time-resolved fluorescence (HTRF) kinase assay; conditions: CDK1/CCNB
Chain of CDK1/CCNB1 (P06493 whole entry): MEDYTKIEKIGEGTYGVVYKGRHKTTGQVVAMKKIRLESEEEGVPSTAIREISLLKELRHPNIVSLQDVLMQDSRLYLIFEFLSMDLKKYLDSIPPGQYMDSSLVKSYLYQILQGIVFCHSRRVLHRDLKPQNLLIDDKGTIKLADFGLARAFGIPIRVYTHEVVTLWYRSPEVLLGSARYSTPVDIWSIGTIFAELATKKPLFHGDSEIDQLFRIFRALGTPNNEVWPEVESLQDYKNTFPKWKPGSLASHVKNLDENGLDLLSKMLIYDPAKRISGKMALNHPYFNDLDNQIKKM
Chain of CDK1/CCNB1 (P14635 whole entry partner): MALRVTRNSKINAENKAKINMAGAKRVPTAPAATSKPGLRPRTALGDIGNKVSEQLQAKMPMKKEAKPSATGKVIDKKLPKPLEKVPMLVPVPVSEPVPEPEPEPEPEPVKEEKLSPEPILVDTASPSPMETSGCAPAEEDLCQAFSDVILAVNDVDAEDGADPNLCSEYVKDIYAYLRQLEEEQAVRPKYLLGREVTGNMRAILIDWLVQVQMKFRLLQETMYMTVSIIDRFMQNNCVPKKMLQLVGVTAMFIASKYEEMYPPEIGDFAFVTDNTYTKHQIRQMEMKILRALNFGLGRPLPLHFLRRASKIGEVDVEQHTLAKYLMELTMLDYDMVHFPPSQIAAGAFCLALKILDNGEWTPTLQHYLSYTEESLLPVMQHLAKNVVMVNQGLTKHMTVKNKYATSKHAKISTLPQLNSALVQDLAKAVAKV
Method in brief: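 CDK1/CCNB1 0.5 nM + cpd, 20 min 23 °C; add 1 mM ATP, 50 nM ULight-4E-BP1 peptide, 60 min 23 °C; stop 10 mM EDTA; 2 nM Eu-Ab, 60 min; HTRF 665 nm. 11-pt half-log, top 10 μM typical; IC50.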

CDK4/CCND3 = CDK4/CCND3 (Homo sapiens, UniProt P11802); assay: CDK4 homogeneous time-resolved fluorescence (HTRF) kinase assay; conditions: CDK4/CCND
Chain of CDK4/CCND3 (P11802 whole entry): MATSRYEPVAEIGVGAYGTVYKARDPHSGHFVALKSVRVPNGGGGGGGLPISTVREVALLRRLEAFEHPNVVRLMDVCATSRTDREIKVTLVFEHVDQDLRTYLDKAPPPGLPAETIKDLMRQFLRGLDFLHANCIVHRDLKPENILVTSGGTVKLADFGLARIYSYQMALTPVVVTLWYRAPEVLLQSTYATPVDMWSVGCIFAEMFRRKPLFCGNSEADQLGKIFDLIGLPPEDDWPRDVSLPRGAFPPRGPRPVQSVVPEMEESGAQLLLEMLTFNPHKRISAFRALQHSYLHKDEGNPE
Chain of CDK4/CCND3 (P30281 whole entry partner): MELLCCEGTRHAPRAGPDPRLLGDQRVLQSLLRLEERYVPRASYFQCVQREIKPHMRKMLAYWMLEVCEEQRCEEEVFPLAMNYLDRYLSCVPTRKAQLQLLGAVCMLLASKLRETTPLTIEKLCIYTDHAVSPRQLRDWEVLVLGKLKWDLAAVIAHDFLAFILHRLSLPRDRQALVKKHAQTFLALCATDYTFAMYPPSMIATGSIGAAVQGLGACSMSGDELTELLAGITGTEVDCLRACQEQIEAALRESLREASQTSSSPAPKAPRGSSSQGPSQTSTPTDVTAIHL
Method in brief: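 IC50 values were derived from 11-point half-log dilutions, usually starting at 10 μM. Compound was first held for 20 min at 23 °C with 1.5 nM CDK4/CCND3. 1 mM ATP and 50 nM ULight-eIF4E-BP1 (Thr37/46) substrate were then added for 60 min, and the TR-FRET 665 nm signal was measured after EDTA stop and Eu-anti-phospho-4E-BP1 detection.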

CDK6/CCND1 = CDK6/CCND1 (Homo sapiens, UniProt Q00534); assay: CDK6 homogeneous time-resolved fluorescence (HTRF) kinase assay; conditions: CDK6/CCND
Chain of CDK6/CCND1 (Q00534 whole entry): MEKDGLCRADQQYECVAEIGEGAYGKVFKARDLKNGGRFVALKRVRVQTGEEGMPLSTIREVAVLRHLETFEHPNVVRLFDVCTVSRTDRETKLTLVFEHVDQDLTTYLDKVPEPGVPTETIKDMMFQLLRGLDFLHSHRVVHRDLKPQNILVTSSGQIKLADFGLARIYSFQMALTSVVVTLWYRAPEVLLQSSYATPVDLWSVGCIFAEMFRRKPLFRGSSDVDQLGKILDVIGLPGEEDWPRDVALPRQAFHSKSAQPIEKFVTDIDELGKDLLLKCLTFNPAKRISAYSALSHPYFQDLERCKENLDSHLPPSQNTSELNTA
Chain of CDK6/CCND1 (P24385 whole entry partner): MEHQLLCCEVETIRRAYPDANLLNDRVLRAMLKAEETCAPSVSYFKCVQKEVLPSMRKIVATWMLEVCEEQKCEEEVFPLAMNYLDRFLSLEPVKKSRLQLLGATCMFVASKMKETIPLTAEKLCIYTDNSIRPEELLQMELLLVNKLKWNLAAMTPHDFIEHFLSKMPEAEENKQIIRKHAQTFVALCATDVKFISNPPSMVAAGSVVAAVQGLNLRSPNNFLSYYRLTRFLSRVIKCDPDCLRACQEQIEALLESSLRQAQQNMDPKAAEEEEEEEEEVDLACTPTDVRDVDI
Method in brief: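 Recombinant CDK6/CCND1 (1 nM final) was preincubated with compound for 20 min at 23 °C in HEPES buffer with MgCl2, EGTA, DTT and Tween 20. Kinase reaction then ran 60 min at 23 °C with 1 mM ATP and 50 nM ULight-4E-BP1 (Thr37/46) peptide, and was stopped with EDTA.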

[1] = x = IC50 <25 nM, read-out: CDK2/CCNE IC50 (<25 nM)
[2] = x = IC50 >250 nM, read-out: CDK1/CCNB IC50 (>250 nM column)
[3] = x = IC50 >250 nM, read-out: CDK4/CCND IC50 (>250 nM column)
[4] = x = IC50 >250 nM, read-out: CDK6/CCND IC50 (>250 nM column)
[5] = <25 nM, read-out: CDK2/CCNE IC50 <25 nM
[6] = 25-250 nM marked x, read-out: CDK1/CCNB IC50 25-250 nM
[7] = 25-250 nM marked x, read-out: CDK4/CCND IC50 25-250 nM
[8] = >250 nM marked x, read-out: CDK6/CCND IC50 >250 nM
[9] = >250 nM marked x, read-out: CDK1/CCNB IC50 >250 nM
[10] = >250 nM marked x, read-out: CDK4/CCND IC50 >250 nM
[11] = >250 nM marked x, read-out: CDK2/CCNE IC50 >250 nM
[12] = 25-250 nM marked x, read-out: CDK2/CCNE IC50 25-250 nM

SMILES: CS(=O)(=O)c1ccc(Nc2cc3c(N4CC[C@H](c5ccc(C#N)cc5)[C@H](O)C4)nccc3cn2)cc1 (relative stereo) [Example 606, 4-(3-hydroxy-1-(7-((4-(methylsulfonyl)phenyl)amino)-2,6-naphthyridin-1-yl)piperidin-4-yl)benzonitrile]
IC50 (CDK2/CCNE1; x = IC50 25-250 nM, read-out: CDK2/CCNE IC50 (25-250 nM)): 0.025 to 0.25 µM
IC50 (CDK1/CCNB1; [2]): > 0.25 µM
IC50 (CDK4/CCND3; [3]): > 0.25 µM
IC50 (CDK6/CCND1; [4]): > 0.25 µM

SMILES: CS(=O)(=O)N1CCC(Nc2cc3c(N4CCC(C#N)C4)nccc3cn2)CC1 (single isomer, unassigned) [Ex 115, 1-(7-((1-(methylsulfonyl)piperidin-4-yl)amino)-2,6-naphthyridin-1-yl)pyrrolidine-3-carbonitrile]
IC50 (CDK2/CCNE1; [5]): < 0.025 µM
IC50 (CDK1/CCNB1; [6]): 0.025 to 0.25 µM
IC50 (CDK4/CCND3; <25 nM, read-out: CDK4/CCND IC50 <25 nM): < 0.025 µM
IC50 (CDK6/CCND1; <25 nM, read-out: CDK6/CCND IC50 <25 nM): < 0.025 µM

SMILES: CCC1(CC)C(=O)Nc2cc(C#Cc3nccc4cnc(Nc5ccc(S(=N)(=O)C6COC6)cc5F)cc34)ccc21 (single isomer, unassigned) [Ex 273, 3,3-diethyl-6-((7-((2-fluoro-4-(oxetane-3-sulfonimidoyl)phenyl)amino)-2,6-naphthyridin-1-yl)ethynyl)indolin-2-one]
IC50 (CDK2/CCNE1; [5]): < 0.025 µM
IC50 (CDK1/CCNB1; [9]): > 0.25 µM
IC50 (CDK4/CCND3; [10]): > 0.25 µM
IC50 (CDK6/CCND1; [8]): > 0.25 µM

SMILES: CCS(=N)(=O)c1ccc(Nc2cc3c(C#Cc4ccc5c(c4)NC(=O)C54CC4)nccc3cn2)c(OC)c1 (single isomer, unassigned) [Ex 289, 6'-((7-((4-(ethylsulfonimidoyl)-2-methoxyphenyl)amino)-2,6-naphthyridin-1-yl)ethynyl)spiro[cyclopropane-1,3'-indolin]-2'-one]
IC50 (CDK2/CCNE1; [5]): < 0.025 µM
IC50 (CDK1/CCNB1; [9]): > 0.25 µM
IC50 (CDK4/CCND3; [10]): > 0.25 µM
IC50 (CDK6/CCND1; [8]): > 0.25 µM

SMILES: CCC1(CC)C(=O)Nc2cc(C#Cc3nccc4cnc(Nc5ccc(S(=N)(=O)C6CC6)cc5OC)cc34)ccc21 (single isomer, unassigned) [Ex 299, 6-((7-((4-(cyclopropanesulfonimidoyl)-2-methoxyphenyl)amino)-2,6-naphthyridin-1-yl)ethynyl)-3,3-diethylindolin-2-one]
IC50 (CDK2/CCNE1; [12]): 0.025 to 0.25 µM
IC50 (CDK1/CCNB1; [9]): > 0.25 µM
IC50 (CDK4/CCND3; [10]): > 0.25 µM
IC50 (CDK6/CCND1; [8]): > 0.25 µM

SMILES: CCC1(CC)C(=O)Nc2cc(C#Cc3nccc4cnc(Nc5ccc(S(=N)(=O)C6CC(F)(F)C6)cc5)cc34)ccc21 (single isomer, unassigned) [Ex 303, 6-((7-((4-(3,3-difluorocyclobutane-1-sulfonimidoyl)phenyl)amino)-2,6-naphthyridin-1-yl)ethynyl)-3,3-diethylindolin-2-one]
IC50 (CDK2/CCNE1; [12]): 0.025 to 0.25 µM
IC50 (CDK1/CCNB1; [9]): > 0.25 µM
IC50 (CDK4/CCND3; [10]): > 0.25 µM
IC50 (CDK6/CCND1; [8]): > 0.25 µM

SMILES: COc1cc(S(C)(=N)=O)ccc1Nc1cc2c(C#Cc3ccc4c(c3)NC(=O)C43CC3)nccc2cn1 (single isomer, unassigned) [Ex 305, 6'-((7-((2-methoxy-4-(S-methylsulfonimidoyl)phenyl)amino)-2,6-naphthyridin-1-yl)ethynyl)spiro[cyclopropane-1,3'-indolin]-2'-one]
IC50 (CDK2/CCNE1; [5]): < 0.025 µM
IC50 (CDK1/CCNB1; [9]): > 0.25 µM
IC50 (CDK4/CCND3; [10]): > 0.25 µM
IC50 (CDK6/CCND1; [8]): > 0.25 µM

SMILES: N=S(=O)(c1ccc(Nc2cc3c(C#Cc4ccc5c(c4)NC(=O)C54CC4)nccc3cn2)cc1)C1CC1 (single isomer, unassigned) [Ex 306, 6'-((7-((4-(cyclopropanesulfonimidoyl)phenyl)amino)-2,6-naphthyridin-1-yl)ethynyl)spiro[cyclopropane-1,3'-indolin]-2'-one]
IC50 (CDK2/CCNE1; [5]): < 0.025 µM
IC50 (CDK1/CCNB1; [6]): 0.025 to 0.25 µM
IC50 (CDK4/CCND3; [7]): 0.025 to 0.25 µM
IC50 (CDK6/CCND1; 25-250 nM marked x, read-out: CDK6/CCND IC50 25-250 nM): 0.025 to 0.25 µM

Results, then the compound that gave them:

IC50 (CDK2/CCNE1; [1]): < 0.025 µM
IC50 (CDK1/CCNB1; [2]): > 0.25 µM
IC50 (CDK4/CCND3; [3]): > 0.25 µM
IC50 (CDK6/CCND1; [4]): > 0.25 µM
SMILES: Cc1c(-c2nccc3cnc(Nc4ccc(S(C)(=N)=O)cc4)cc23)ccc2nn(C)cc12 (racemic) [Example 626, (4-((5-(2,4-dimethyl-2H-indazol-5-yl)-2,6-naphthyridin-3-yl)amino)phenyl)(imino)(methyl)-λ^6-sulfanone]

IC50 (CDK2/CCNE1; [1]): < 0.025 µM
IC50 (CDK1/CCNB1; [2]): > 0.25 µM
IC50 (CDK4/CCND3; [3]): > 0.25 µM
IC50 (CDK6/CCND1; x = IC50 25-250 nM, read-out: CDK6/CCND IC50 (25-250 nM)): 0.025 to 0.25 µM
SMILES: CC1(O)C=C(c2nccc3cnc(Nc4ccc(S(C)(=O)=O)cc4)cc23)CCC1 (racemic) [Example 671, 1-methyl-3-(7-((4-(methylsulfonyl)phenyl)amino)-2,6-naphthyridin-1-yl)cyclohex-2-en-1-ol]

IC50 (CDK2/CCNE1; [5]): < 0.025 µM
IC50 (CDK1/CCNB1; [6]): 0.025 to 0.25 µM
IC50 (CDK4/CCND3; [7]): 0.025 to 0.25 µM
IC50 (CDK6/CCND1; [8]): > 0.25 µM
SMILES: Cc1cc(S(=N)(=O)C2COC2)ccc1Nc1cc2c(C#Cc3ccc4c(c3)NC(=O)C43CC3)nccc2cn1 (single isomer, unassigned) [Ex 268, 6'-((7-((2-methyl-4-(oxetane-3-sulfonimidoyl)phenyl)amino)-2,6-naphthyridin-1-yl)ethynyl)spiro[cyclopropane-1,3'-indolin]-2'-one]

IC50 (CDK2/CCNE1; [5]): < 0.025 µM
IC50 (CDK1/CCNB1; [9]): > 0.25 µM
IC50 (CDK4/CCND3; [10]): > 0.25 µM
IC50 (CDK6/CCND1; [8]): > 0.25 µM
SMILES: CCC1(CC)C(=O)Nc2cc(C#Cc3nccc4cnc(Nc5ccc(S(=N)(=O)C6CCC6)cc5OC)cc34)ccc21 (single isomer, unassigned) [Ex 269, 6-((7-((4-(cyclobutanesulfonimidoyl)-2-methoxyphenyl)amino)-2,6-naphthyridin-1-yl)ethynyl)-3,3-diethylindolin-2-one]

IC50 (CDK2/CCNE1; [5]): < 0.025 µM
IC50 (CDK1/CCNB1; [9]): > 0.25 µM
IC50 (CDK4/CCND3; [10]): > 0.25 µM
IC50 (CDK6/CCND1; [8]): > 0.25 µM
SMILES: COc1cc(S(=N)(=O)C2CC2)ccc1Nc1cc2c(C#Cc3ccc4c(c3)NC(=O)C43CC3)nccc2cn1 (single isomer, unassigned) [Ex 278, 6'-((7-((4-(cyclopropanesulfonimidoyl)-2-methoxyphenyl)amino)-2,6-naphthyridin-1-yl)ethynyl)spiro[cyclopropane-1,3'-indolin]-2'-one]

IC50 (CDK2/CCNE1; [11]): > 0.25 µM
IC50 (CDK1/CCNB1; [9]): > 0.25 µM
IC50 (CDK4/CCND3; [10]): > 0.25 µM
IC50 (CDK6/CCND1; [8]): > 0.25 µM
SMILES: CCC1(CC)C(=O)Nc2cc(C#Cc3nccc4cnc(Nc5ccc(S(=N)(=O)CC(F)(F)F)cc5OC)cc34)ccc21 (single isomer, unassigned) [Ex 281, 3,3-diethyl-6-((7-((2-methoxy-4-(2,2,2-trifluoroethylsulfonimidoyl)phenyl)amino)-2,6-naphthyridin-1-yl)ethynyl)indolin-2-one]

IC50 (CDK2/CCNE1; [12]): 0.025 to 0.25 µM
IC50 (CDK1/CCNB1; [9]): > 0.25 µM
IC50 (CDK4/CCND3; [10]): > 0.25 µM
IC50 (CDK6/CCND1; [8]): > 0.25 µM
SMILES: CCC1(CC)C(=O)Nc2cc(C#Cc3nccc4cnc(Nc5ccc(S(=N)(=O)CC(F)(F)F)cc5C)cc34)ccc21 (single isomer, unassigned) [Ex 284, 3,3-diethyl-6-((7-((2-methyl-4-(2,2,2-trifluoroethylsulfonimidoyl)phenyl)amino)-2,6-naphthyridin-1-yl)ethynyl)indolin-2-one]

IC50 (CDK2/CCNE1; [12]): 0.025 to 0.25 µM
IC50 (CDK1/CCNB1; [9]): > 0.25 µM
IC50 (CDK4/CCND3; [10]): > 0.25 µM
IC50 (CDK6/CCND1; [8]): > 0.25 µM
SMILES: CCC1(CC)C(=O)Nc2cc(C#Cc3nccc4cnc(Nc5ccc(S(C)(=N)=O)cc5C(F)F)cc34)ccc21 (single isomer, unassigned) [Ex 294, 6-((7-((2-(difluoromethyl)-4-(S-methylsulfonimidoyl)phenyl)amino)-2,6-naphthyridin-1-yl)ethynyl)-3,3-diethylindolin-2-one]

IC50 (CDK2/CCNE1; [11]): > 0.25 µM
IC50 (CDK1/CCNB1; [9]): > 0.25 µM
IC50 (CDK4/CCND3; [10]): > 0.25 µM
IC50 (CDK6/CCND1; [8]): > 0.25 µM
SMILES: CCC1(CC)C(=O)Nc2cc(C#Cc3nccc4cnc(Nc5ccc(S(=N)(=O)C6CC(F)(F)C6)cc5F)cc34)ccc21 (single isomer, unassigned) [Ex 301, 6-((7-((4-(3,3-difluorocyclobutane-1-sulfonimidoyl)-2-fluorophenyl)amino)-2,6-naphthyridin-1-yl)ethynyl)-3,3-diethylindolin-2-one]

— patent publication US20260325533A1, “CDK INHIBITOR COMPOUNDS” (ALEKSIA THERAPEUTICS, INC., priority 2023, published 2026)
